Molecular target: BCL6 (Homo sapiens (Human), UniProt P41182)
Test: Immunofluorescence high content imaging of BCL6 degradation in T47D cells
Assay type: cell-based
Details: not given
Description: Immunofluorescence Protocol for High Cotent Imaging of BCL6
T47D cells were seeded in 100 μl volume of RPMI1640-10% FBS in a 96-well black/clear bottom plates for adherent lines (Corning #3904).
Day 1. T47D breast cancer epithelial cells were seeded at a density so that confluence is ˜70-90% at endpoint. Cells were seeded at 7K/0.1 ml/well the morning prior to the addition of exemplary bifunctional degradation compounds.
Day 2. Prepare an 11 point 3-fold serial dilution of exemplary bifunctional compound in DMSO and aliquot an appropriate volume to cell growth media to generate a 2× final concentration of exemplary bifunctional compound. Add an equal volume (0.1 ml) of 2× exemplary bifunctional compound/media mix to previously plated cells, for a final top concentration in aqueous cell growth media of 0.1 or 1 μM. Incubate for 3 days at 37° C., 5% CO2.
Day 5 Immunofluorescence. Discard cell media. Wash wells with 200 μl of room temperature phosphate-buffered saline (PBS). Prepared 4% paraformaldehyde (PFA) from 16% PFA (Electron Microscopy Sciences #15710) using 1×PBS. Fifty μl of 4% PF was added to each well and incubate for 15 minutes at room temperature to fix the cells. The PFA was aspirated and the cells washed twice with PBS (200 μl)).
Prepared 0.1% Triton X-100 in PBS using 10% triton X-100 stock. The cells were permeabilized by adding 100 ul of the 0.1% Triton X-100 in PBS to each well to permeabilize cells and incubating at room temperature for 15 minutes. Cells were washed twice with PBS.
Prepared 3% BSA/PBS (from Thermofisher #37515 Blocker BSA in TBS, 10%), and 100 ul was added to each well. The cells were incubated for at least 1 hour at room temperature.
Prepared 1% BSA/PBS using Blocker BSA/PBS, and the 3% BSA/PBS removed from the wells.
For no primary antibody controls, 50 μl 1% BSA/PBS was added.
Primary antibody (BCL6 Rb Ab, CST-14895, Cell Signaling) was diluted 1:300 in 1% BSA/PBS using Blocker BSA/PBS.
Fifty μl of primary antibody added to all remaining wells (i.e., all wells other than the primary antibody controls) and the cells were incubated overnight at 4° C. with slow orbital movement.
Day 6. Contents of the wells was removed and the cells washed four times with 200 ul PBS. 1% BSA/PBS was prepared using Blocker BSA in PBS.
Diluted secondary antibody goat anti-Rb IgG Alexa-488 1:1000, and cell mask-Alexa-647 1:3000 in 1% BSA/PBS in the same mix. Add 50 μl to each well and incubate at room temperature for 1 hour in the dark.
Cells were washed three times with 200 ul PBS, and then incubated for 10 minutes with 100 ul Hoechst dye at 1 μg/mL (20 mM stock) to stain cell nuclei. Wells were then washed with 200 μl PBS, and 100 ul of PBS was added to each well and the plate covered plate with a plastic opaque cover. Plates were stored at 4° C. and covered in aluminum foil until imaged.
Plates were equilibrated to room temperature prior to reading. The bottom of the plate was wiped with 70% isopropanol immediately prior to imaging.
10×, 4 fields/well, include Top hat smoothing in the analysis protocol.

SMILES	IC50
CCn1c(=O)c(OCC(=O)NC)cc2cc(Nc3nc(N4CCN(C(C)(C)C5CCN(c6ccc7c(c6)C(=O)N(C6CCC(=O)NC6=O)C7=O)CC5)CC4)ncc3Cl)ccc21 (stereo not drawn) [compound 304, 2-{[6-({5-chloro-2-[4-(2-{1-[2-(2,6-dioxopiperidin-3-yl)-1,3-dioxo-2,3-dihydro-1H-isoindol-5-yl]piperidin-4-yl}propan-2-yl)piperazin-1-yl]pyrimidin-4-yl}amino)-1-ethyl-2-oxo-1,2-dihydroquinolin-3-yl]oxy}-N-methylacetamide]	< 10 nM
CN1CC[C@H](Oc2cc3cc(Nc4nc(N5CCC(CN6CCN(c7ccc8c(c7)C(=O)N(C7CCC(=O)NC7=O)C8=O)CC6)CC5)ncc4Cl)ccc3n(C)c2=O)C1=O (stereo partly drawn) [compound 259, 5-(4-((1-(5-chloro-4-((1-methyl-3-(((S)-1-methyl-2-oxopyrrolidin-3-yl)oxy)-2-oxo-1,2-dihydroquinolin-6-yl)amino)pyrimidin-2-yl)piperidin-4-yl)methyl)piperazin-1-yl)-2-(2,6-dioxopiperidin-3-yl)isoindoline-1,3-dione]	≥ 100 nM

Same assay, conditions: T47D

SMILES	Dmax
CCn1c(=O)c(OCC(=O)NC)cc2cc(Nc3nc(N4CCN(C(C)(C)C5CCN(c6ccc7c(c6)C(=O)N(C6CCC(=O)NC6=O)C7=O)CC5)CC4)ncc3Cl)ccc21 (stereo not drawn) [compound 304, 2-{[6-({5-chloro-2-[4-(2-{1-[2-(2,6-dioxopiperidin-3-yl)-1,3-dioxo-2,3-dihydro-1H-isoindol-5-yl]piperidin-4-yl}propan-2-yl)piperazin-1-yl]pyrimidin-4-yl}amino)-1-ethyl-2-oxo-1,2-dihydroquinolin-3-yl]oxy}-N-methylacetamide]	≥ 70%
CN1CC[C@H](Oc2cc3cc(Nc4nc(N5CCC(CN6CCN(c7ccc8c(c7)C(=O)N(C7CCC(=O)NC7=O)C8=O)CC6)CC5)ncc4Cl)ccc3n(C)c2=O)C1=O (stereo partly drawn) [compound 259, 5-(4-((1-(5-chloro-4-((1-methyl-3-(((S)-1-methyl-2-oxopyrrolidin-3-yl)oxy)-2-oxo-1,2-dihydroquinolin-6-yl)amino)pyrimidin-2-yl)piperidin-4-yl)methyl)piperazin-1-yl)-2-(2,6-dioxopiperidin-3-yl)isoindoline-1,3-dione]	< 50%

Same assay, conditions: T47D cells

SMILES	Dmax	IC50
CNC(=O)COc1cc2cc(Nc3nc(N4CCC(OC5CCC6(CC5)CN(c5cccc7c5C(=O)N(C5CCC(=O)NC5=O)C7=O)C6)CC4)ncc3Cl)ccc2n(C(C)C)c1=O (stereo not drawn) [compound 434, 2-{[6-({5-chloro-2-[4-({2-[2-(2,6-dioxopiperidin-3-yl)-1,3-dioxo-2,3-dihydro-1H-isoindol-4-yl]-2-azaspiro[3.5]nonan-7-yl}oxy)piperidin-1-yl]pyrimidin-4-yl}amino)-2-oxo-1-(propan-2-yl)-1,2-dihydroquinolin-3-yl]oxy}-N-methylacetamide]	50 to 70%	< 10 nM
CNC(=O)COc1cc2cc(Nc3nc(N4CCC(F)(CN5CCN(c6ccc7c(c6)C(=O)N(C6CCC(=O)NC6=O)C7=O)CC5)CC4)ncc3Cl)ccc2n(C)c1=O (stereo not drawn) [compound 340, 2-{[6-({5-chloro-2-[4-({4-[2-(2,6-dioxopiperidin-3-yl)-1,3-dioxo-2,3-dihydro-1H-isoindol-5-yl]piperazin-1-yl}methyl)-4-fluoropiperidin-1-yl]pyrimidin-4-yl}amino)-1-methyl-2-oxo-1,2-dihydroquinolin-3-yl]oxy}-N-methylacetamide]	50 to 70%	< 10 nM
CNC(=O)COc1cc2cc(Nc3nc(N4C[C@@H](C)N(CC5CCN(c6ccc(C(=O)NC7CCC(=O)NC7=O)c(OC)c6)CC5)[C@@H](C)C4)ncc3Cl)ccc2n(C)c1=O (stereo partly drawn) [compound 346, 4-(4-{[(2R,6S)-4-[5-chloro-4-({1-methyl-3-[(methylcarbamoyl)methoxy]-2-oxo-1,2-dihydroquinolin-6-yl}amino)pyrimidin-2-yl]-2,6-dimethylpiperazin-1-yl]methyl}piperidin-1-yl)-N-(2,6-dioxopiperidin-3-yl)-2-methoxybenzamide]	50 to 70%	< 10 nM
CNC(=O)COc1cc2cc(Nc3nc(N4CCC(OC5CC6(C5)CN(c5ccc7c(c5)CN(C5CCC(=O)NC5=O)C7=O)C6)CC4)ncc3Cl)ccc2n(C(C)C)c1=O (stereo not drawn) [compound 412, 2-{[6-({5-chloro-2-[4-({2-[2-(2,6-dioxopiperidin-3-yl)-1-oxo-2,3-dihydro-1H-isoindol-5-yl]-2-azaspiro[3.3]heptan-6-yl}oxy)piperidin-1-yl]pyrimidin-4-yl}amino)-2-oxo-1-(propan-2-yl)-1,2-dihydroquinolin-3-yl]oxy}-N-methylacetamide]	≥ 70%	< 10 nM
CNC(=O)COc1cc2cc(Nc3nc(N4CCN(CC5CCN(c6cc(OC)c(C(=O)NC7CCC(=O)NC7=O)c(OC)c6)CC5)CC4)ncc3Cl)ccc2n(C)c1=O (stereo not drawn) [compound 368, 4-[4-({4-[5-chloro-4-({1-methyl-3-[(methylcarbamoyl)methoxy]-2-oxo-1,2-dihydroquinolin-6-yl}amino)pyrimidin-2-yl]piperazin-1-yl}methyl)piperidin-1-yl]-N-(2,6-dioxopiperidin-3-yl)-2,6-dimethoxybenzamide]	< 50%	10 to 50 nM
CNC(=O)COc1cc2cc(Nc3nc(N4CCN(CC5CCN(c6cccc(C(=O)NC7CCC(=O)NC7=O)n6)CC5)CC4)ncc3Cl)ccc2n(C)c1=O (stereo not drawn) [compound 320, 6-[4-({4-[5-chloro-4-({1-methyl-3-[(methylcarbamoyl)methoxy]-2-oxo-1,2-dihydroquinolin-6-yl}amino)pyrimidin-2-yl]piperazin-1-yl}methyl)piperidin-1-yl]-N-(2,6-dioxopiperidin-3-yl)pyridine-2-carboxamide]	< 50%	< 10 nM
CNC(=O)COc1cc2cc(Nc3nc(N4CCC(CN5CC6(CCN(c7ccc8c(c7)C(=O)N(C7CCC(=O)NC7=O)C8=O)CC6)C5)CC4)ncc3Cl)ccc2n(C(C)C)c1=O (stereo not drawn) [compound 374, 2-{[6-({5-chloro-2-[4-({7-[2-(2,6-dioxopiperidin-3-yl)-1,3-dioxo-2,3-dihydro-1H-isoindol-5-yl]-2,7-diazaspiro[3.5]nonan-2-yl}methyl)piperidin-1-yl]pyrimidin-4-yl}amino)-2-oxo-1-(propan-2-yl)-1,2-dihydroquinolin-3-yl]oxy}-N-methylacetamide]	≥ 70%	< 10 nM
CNC(=O)COc1cc2cc(Nc3nc(N4CCN(CC5CCN(c6ccc7c(c6)C(=O)N(C6CCC(=O)NC6=O)C7=O)CC5)CC4)ncc3Cl)ccc2n(C2CC2)c1=O (stereo not drawn) [compound 323, 2-{[6-({5-chloro-2-[4-({1-[2-(2,6-dioxopiperidin-3-yl)-1,3-dioxo-2,3-dihydro-1H-isoindol-5-yl]piperidin-4-yl}methyl)piperazin-1-yl]pyrimidin-4-yl}amino)-1-cyclopropyl-2-oxo-1,2-dihydroquinolin-3-yl]oxy}-N-methylacetamide]	≥ 70%	< 10 nM

Same assay, conditions: class symbols A-D, read-out: EC50 (nM)*

SMILES	DC50
CC(=O)COc1cc2cc(Nc3nc(N4CCC(OCCOCCOCCOCCOCCOc5ccc6c(c5)CN(C5CCC(=O)NC5=O)C6=O)CC4)ncc3Cl)ccc2n(C)c1=O (stereo not drawn) [compound 98, 3-(5-((14-((1-(5-chloro-4-((1-methyl-2-oxo-3-(2-oxopropoxy)-1,2-dihydroquinolin-6-yl)amino)pyrimidin-2-yl)piperidin-4-yl)oxy)-3,6,9,12-tetraoxatetradecyl)oxy)-1-oxoisoindolin-2-yl)piperidine-2,6-dione]	10 to 50 nM
CNC(=O)COc1cc2cc(Nc3nc(N4CCC(Cc5cn(CCOCCOCCOCC(=O)N[C@H](C(=O)N6C[C@H](O)C[C@H]6C(=O)N[C@@H](C)c6ccc(-c7scnc7C)cc6)C(C)(C)C)nn5)CC4)ncc3Cl)ccc2n(C)c1=O [compound 123, (2S,4R)-1-((S)-2-(tert-butyl)-14-(4-((1-(5-chloro-4-((1-methyl-3-(2-(methylamino)-2-oxoethoxy)-2-oxo-1,2-dihydroquinolin-6-yl)amino)pyrimidin-2-yl)piperidin-4-yl)methyl)-1H-1,2,3-triazol-1-yl)-4-oxo-6,9,12-trioxa-3-azatetradecanoyl)-4-hydroxy-N-((S)-1-(4-(4-methylthiazol-5-yl)phenyl)ethyl)pyrrolidine-2-carboxamide]	50 to 100 nM
CNC(=O)COc1cc2cc(Nc3nc(N4CCC(c5ccc(OCCCOCCOCCOc6ccc7c(c6)CN(C6CCC(=O)NC6=O)C7=O)cc5)CC4)ncc3Cl)ccc2n(C)c1=O (stereo not drawn) [compound 89, 2-((6-((5-chloro-2-(4-(4-(3-(2-(2-((2-(2,6-dioxopiperidin-3-yl)-1-oxoisoindolin-5-yl)oxy)ethoxy)ethoxy)propoxy)phenyl)piperidin-1-yl)pyrimidin-4-yl)amino)-1-methyl-2-oxo-1,2-dihydroquinolin-3-yl)oxy)-N-methylacetamide]	> 100 nM
CNC(=O)COc1cc2cc(Nc3nc(N4CCC(OCCOCCOCCOCCOCCOc5ccc6c(c5)CN(C5CCC(=O)N(C)C5=O)C6=O)CC4)ncc3Cl)ccc2n(C)c1=O (stereo not drawn) [compound 87, 2-((6-((5-chloro-2-(4-((14-((2-(1-methyl-2,6-dioxopiperidin-3-yl)-1-oxoisoindolin-5-yl)oxy)-3,6,9,12-tetraoxatetradecyl)oxy)piperidin-1-yl)pyrimidin-4-yl)amino)-1-methyl-2-oxo-1,2-dihydroquinolin-3-yl)oxy)-N-methylacetamide]	50 to 100 nM
